“Also recorded” adds a separate entry of the source. Bridge positions count the residues as written; N and C are the ends. Ends that are not written are not given here.
How the values were obtained:
rat aorta contraction = assay: Peptide-induced contraction of rat aorta rings (agonist activity)
Experimental: Male Sprague-Dawley rats (250-350 g), which had been quarantined for 5-7 days prior to the experiments, were sacrificed by decapitation (experiments were approved by the Advisory Committee For Animal Resources, Tulane University School of Medicine). The thoracic aorta was dissected, freed from connective tissue, and cut into rings of about 1.5 mm in width. The rings were suspended in a 15 ml organ bath containing high potassium Kreb's solution (9.15 g/L potassium chloride, 2.1 g/L sodium bicarbonate, 1.0 g/L glucose, 0.16 g/L potassium phosphate monobasic, 0.14 g/L magnesium sulfate (anhydr.), and 0.22 g/L calcium chloride (dihydr.))
Optimal tension was applied (0.2 g) to the tissues and the bath medium was maintained at 37° C. and bubbled with a mixture of 95% O2/5% CO2. […] Changes in arterial smooth muscle tension were recorded isometrically using a force-displacement transducer (Radnoti), and a AcqKnowledge ACK100 Version 3.2 (BIOPAC Systems, Inc., Santa Barbara, Calif.)
In siliconized glass tubes, peptides were dissolved in dionized water at a concentration of 1 μg/1 μL (stock solution) and then diluted 1:10 with sterile BSA-saline solution (0.1% BSA, fraction V, Sigma, St. Louis in 0.9% NaCl). […] Peptide-induced changes in tension of the aorta rings were recorded by force-displacement transducers and processed by the computer system BIOPAC Inc., as described above. […]

U-II receptors = biological target: T1, U-II receptors (Rattus norvegicus, UniProt P49684); assay: Binding to U-II receptors (rat aorta tissue)
T1 construct: from tissue; host or cells: rat thoracic aorta (circular strips / rings)
T1 sequence (P49684 1-386): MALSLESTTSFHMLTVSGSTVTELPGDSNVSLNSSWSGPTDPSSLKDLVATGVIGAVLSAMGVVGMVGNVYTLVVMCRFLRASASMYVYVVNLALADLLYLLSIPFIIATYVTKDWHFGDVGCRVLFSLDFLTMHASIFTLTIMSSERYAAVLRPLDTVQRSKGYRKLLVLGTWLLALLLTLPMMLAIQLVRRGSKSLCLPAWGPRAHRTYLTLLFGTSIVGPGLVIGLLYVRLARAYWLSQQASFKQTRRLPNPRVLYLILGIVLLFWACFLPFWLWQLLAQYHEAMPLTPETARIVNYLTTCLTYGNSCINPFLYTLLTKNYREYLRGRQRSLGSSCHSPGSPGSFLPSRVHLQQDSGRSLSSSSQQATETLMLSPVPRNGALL

## Asp-c[Cys-Phe-Trp-Lys-Tyr-Cys]-Val-OH (DCFWKYCV-OH; disulfide 2-7 (inferred))
Rat aorta contraction
  potency in inducing rat aorta contraction relative to full human and fish U-II: greater potency than the full human and fish U-II sequences; also recorded: more potent than the full human and fish sequences
U-II receptors
  potency in binding to rat aorta tissue relative to full human and fish U-II: greater potency than the full human and fish U-II sequences

Reference: patent publication US7241737B2, “Urotensin-II agonists and antagonists” (priority 2000, dated 2007)
